Data published in patent US5968801A, “Polyhydroxyalkanoate depolymerase and process for producing the same” (Taisei Corporation, priority 1997, dated 1999).

Target: PHA depolymerase
Format: biochemical, Corynebacterium aquaticum IM-1
Settings: pH 6.5; read-out: IC50 (concentration of inhibitor at which the enzyme activity was inhibited by 50%)

| SMILES | IC50 [mM] |
| --- | --- |
| O[C@H](CS)[C@H](O)CS (racemic) [DTT, dithiothreitol] | 73 |
| O=S(=O)(F)Cc1ccccc1 [PMSF, Phenylmethylsulfonyl fluoride] | 1.92 |
